The values that follow come from ChEMBL document CHEMBL4732119, “Design, synthesis and pharmacological evaluation of bicyclic and tetracyclic pyridopyrimidinone analogues as new KRAS inhibitors” (Eur J Med Chem, 2021).

For experiment [1], the system named is A549. Nature of the experiment: Antiproliferative activity against human A549 cells harboring KRAS G12S mutant assessed as growth inhibition measured after 72 hrs by SRB assay. The format is functional, cell-based. Particulars: A549, 72 h.
For experiment [2], the system named is MIA PaCa-2. Nature of the experiment: Antiproliferative activity against human MIA PaCa-2 cells harboring KRAS G12C mutant assessed as growth inhibition at 0.1 uM measured after 72 hrs by CCK8 assay relative to control. The class given is functional.
The next experiment relates to NCI-H1975. Nature of the experiment: Antiproliferative activity against human NCI-H1975 cells harboring wild-type KRAS assessed as growth inhibition measured after 72 hrs by SRB assay. The class given is functional, cell-based. Particulars: NCI-H1975, 72 h.
Experiment [3] deals with MIA PaCa-2. Nature of the experiment: Antiproliferative activity against human MIA PaCa-2 cells harboring KRAS G12C mutant assessed as growth inhibition at 1 uM measured after 72 hrs by CCK8 assay relative to control. The class given is functional.
Experiment [4] deals with MIA PaCa-2. Nature of the experiment: Antiproliferative activity against human MIA PaCa-2 cells harboring KRAS G12C mutant assessed as growth inhibition at 10 uM measured after 72 hrs by CCK8 assay relative to control. The format is functional.
Experiment [5] can be described thus: Inhibition of recombinant human N-terminal polyHis-tagged KRAS isoform 2B G12C mutant (Thr2 to Cys185 residues) expressed in Escherichia coli using GTP as substrate measured after 2 hrs by GTPase-glo assay.
For experiment [6], the system named is A549. Nature of the experiment: Antiproliferative activity against human A549 cells harboring KRAS G12S mutant assessed as growth inhibition at 0.1 uM measured after 72 hrs by SRB assay relative to control. The format is functional.
For a further experiment, the system named is NCI-H358. Nature of the experiment: Antiproliferative activity against human NCI-H358 cells harboring KRAS G12C mutant assessed as growth inhibition measured after 72 hrs by SRB assay. The class given is functional, cell-based.
The test system of experiment [7] is A549. Nature of the experiment: Antiproliferative activity against human A549 cells harboring KRAS G12S mutant assessed as growth inhibition at 1 uM measured after 72 hrs by SRB assay relative to control. The class given is functional.
Experiment [8] deals with MIA PaCa-2. Nature of the experiment: Antiproliferative activity against human MIA PaCa-2 cells harboring KRAS G12C mutant assessed as growth inhibition measured after 72 hrs by CCK8 assay. The format is functional, cell-based.
Experiment [9] relates to A549. Nature of the experiment: Antiproliferative activity against human A549 cells harboring KRAS G12S mutant assessed as growth inhibition at 10 uM measured after 72 hrs by SRB assay relative to control. The format is functional.
Experiment [10] has as its system GTPase KRas (Homo sapiens), P01116 [G12C]. Nature of the experiment: Inhibition of KRAS G12C mutant in human NCI-H358 cells assessed as reduction in ERK phosphorylation measured after 6 hrs by Western blot analysis. The format is cell-based. The following applies: dose 10-1000 nM.
Experiment [11] has the same test system. Nature of the experiment: Inhibition of KRAS G12C mutant in human NCI-H358 cells assessed as reduction in AKT phosphorylation measured after 6 hrs by Western blot analysis. Particulars: dose 10-1000 nM. The class given is cell-based.
For experiment [12] the test system is unchanged. The following applies: NCI-H358, dose 10-1000 nM, time 6.0 hrs.
The target of the next experiment is GTPase KRas (Homo sapiens, UniProt P01116). Nature of the experiment: Inhibition of recombinant human N-terminal His-tagged KRAS (2 to 185 residues) expressed in baculovirus infected Sf9 insect cells using GTP as substrate measured after 2 hrs by GTPase-glo assay.

For `C=CC(=O)N1CCN(c2nc(=O)n(-c3c(C)ccnc3C(C)C)c3nc(-c4c(O)cccc4F)c(F)cc23)[C@@H](C)C1` [SOTORASIB], the 50% inhibitory concentration (IC50) with A549 [1] is over 10 µM; in the experiment with NCI-H1975, over 10 µM; in experiment [5], 1.27 µM; in the experiment on NCI-H358 (Homo sapiens, NCI-H358, 72 h), under 0.016 µM; with MIA PaCa-2 [8] (Homo sapiens, MIA PaCa-2, 72 h), 0.029 µM. The “growth inhibition (GI)” value with MIA PaCa-2 [2] came to 49.49%; in the experiment on MIA PaCa-2 [3] it was 64.63%; in the experiment with MIA PaCa-2 [4], 59.49%; with A549 [6] it was 4.13%; in the experiment with A549 [7] it was 5.81%; in the experiment on A549 [9] it was 24.09%.

As for `C=CC(=O)N1CCN(c2nc(=O)n(-c3c(C)ccnc3C(C)C)c3c(F)c(-c4c(O)cccc4F)ncc23)[C@@H](C)C1` (stereo in doubt; 26a) [listing 1 of 2 here], the inhibition result in experiment [10], in experiment [11] and in [12] was “Dose-dependent effect” in each case.

Turning to `C=CC(=O)N1CCN(c2nc(=O)n(-c3c(C)ccnc3C(C)C)c3c(F)c(-c4c(O)cccc4F)ncc23)[C@@H](C)C1` (stereo in doubt; 26a) [listing 2 of 2 here], the IC50 at GTPase KRas is over 10 µM; with A549 [1], over 10 µM; in the experiment with NCI-H1975, over 10 µM; in experiment [5] it was 1.87 µM; with NCI-H358 (nci-h358), 0.26 µM; in the experiment on MIA PaCa-2 [8] (mia paca-2), 0.53 µM.

As for `C=CC(=O)N1CCN(c2nc(=O)n(-c3c(C)ccnc3C(C)C)c3c(Cl)c(-c4c(O)cccc4F)ncc23)[C@@H](C)C1`, the IC50 on GTPase KRas is over 10 µM; with A549 [1], over 10 µM; in the experiment with NCI-H1975 it was over 10 µM; in experiment [5], 2.4 µM; with NCI-H358 (Homo sapiens, NCI-H358, 72 h) it was 1.21 µM; with MIA PaCa-2 [8] (Homo sapiens, MIA PaCa-2, 72 h), 2.7 µM.

`C=CC(=O)N1CCN(c2nc(=O)n(-c3c(C(C)C)ncnc3C(C)C)c3c(F)c(-c4c(O)cccc4F)ncc23)[C@@H](C)C1`: the 50% inhibitory concentration (IC50) on GTPase KRas is over 10 µM; in the experiment on A549 [1], 3.27 µM; in the experiment with NCI-H1975 it was 8.99 µM; in experiment [5], 1.81 µM; with NCI-H358 (Homo sapiens, NCI-H358, 72 h), 0.26 µM; in the experiment with MIA PaCa-2 [8] (Homo sapiens, MIA PaCa-2, 72 h), 0.43 µM.
